Experimental data: the NIST ThermoML archive (doi:10.1021/je401118k)

Assay: mn = molality of the nth substance listed, in mol/kg
Details: for electrical conductivity: 101 kPa, Liquid, Alternating current cell with electrodes; for surface tension liquid-gas: Ring tensiometer

C[N+]1(CCC[Si](O[Si](C)(C)C)(O[Si](C)(C)C)O[Si](C)(C)C)CCCC1.O=[N+]([O-])[O-] + O
Details | electrical conductivity, 288.15 K [S/m] | electrical conductivity, 293.15 K [S/m] | electrical conductivity, 298.15 K [S/m] | electrical conductivity, 303.15 K [S/m] | electrical conductivity, 308.15 K [S/m] | surface tension liquid-gas, 298.15 K [mN/m]
m1 = 1e-06 | – | – | – | – | – | 71.3
m1 = 1e-05 | – | – | – | – | – | 67.8
m1 = 0.0001 | – | – | – | – | – | 54.3
m1 = 0.0006 | – | – | – | – | – | 42
m1 = 0.0008 | 0.00614 | 0.00666 | 0.00734 | 0.00801 | 0.00864 | –
m1 = 0.0009 | 0.00682 | 0.00744 | 0.00818 | 0.00894 | 0.00984 | –
m1 = 0.001 | 0.00733 | 0.0081 | 0.00888 | 0.00967 | 0.01058 | 37.4
m1 = 0.002 | 0.0143 | 0.01556 | 0.01717 | 0.01881 | 0.0212 | 33.3
m1 = 0.003 | 0.0209 | 0.0231 | 0.0255 | 0.0279 | 0.0302 | 30.3
m1 = 0.004 | 0.0264 | 0.0291 | 0.0321 | 0.0354 | 0.0388 | 27.6
m1 = 0.005 | 0.0282 | 0.031 | 0.0348 | 0.0392 | 0.0438 | 26.1
m1 = 0.006 | 0.03 | 0.0329 | 0.0367 | 0.0414 | 0.0466 | 25.1
m1 = 0.007 | 0.0312 | 0.0343 | 0.0382 | 0.043 | 0.0486 | 24
m1 = 0.008 | 0.0324 | 0.0354 | 0.0396 | 0.0447 | 0.0502 | 23.3
m1 = 0.009 | 0.0335 | 0.0369 | 0.041 | 0.0464 | 0.0525 | 23
m1 = 0.01 | – | – | – | – | – | 22.4
m1 = 0.015 | – | – | – | – | – | 21.4
m1 = 0.02 | – | – | – | – | – | 21.2
m1 = 0.025 | – | – | – | – | – | 21.3
m1 = 0.03 | – | – | – | – | – | 21.2

CC(=O)[O-].C[N+]1(CCC[Si](O[Si](C)(C)C)(O[Si](C)(C)C)O[Si](C)(C)C)CCCC1 + O
298.15 K
Details | surface tension liquid-gas [mN/m]
m1 = 1e-06 | 70.5
m1 = 1e-05 | 58.2
m1 = 0.0001 | 47.1
m1 = 0.0002 | 42.4
m1 = 0.0004 | 36.9
m1 = 0.0006 | 32.1
m1 = 0.0008 | 29.7
m1 = 0.001 | 27.8
m1 = 0.002 | 23.5
m1 = 0.003 | 21.5
m1 = 0.004 | 20.2
m1 = 0.005 | 20
m1 = 0.006 | 20
m1 = 0.007 | 20
m1 = 0.008 | 20
m1 = 0.009 | 20
